Data taken from patent publication US20200330456A1, “NOVEL APPLICATION OF GZD824 AND PHARMACEUTICALLY ACCEPTABLE SALTS THEREOF IN TREATING DISEASES” (HEALTHQUEST PHARMA INC., priority 2016, published 2020).

Experiments:
[1] = system: human primary leukemia cells from P #1 PDX mouse spleen; test: Apoptosis of human primary leukemia cells from P #1 PDX mouse spleen, with and without IGF-1; assay type: cell-based; conditions: P #1 PDX spleen cells; GZD824 1 μM/L and IGF-1 10 ng/mL, 24 hours
Experimental: 6.2 Human primary leukemia cells were extracted from P #1 PDX mouse spleen and co-cultured with DMSO, GZD824 (1 μM/L), IGF-1 (10 ng/mL), or GZD824 (1 μM/L) and IGF-1 (10 ng/mL) for 24 hours. The ratios of ANNEXIN V positive cells were analyzed by statistical methods. […] Please refer to FIG. 17 for the experimental results.

NALM6 cells = test: Apoptosis kit (ANNEXIN V, PI) flow cytometry, NALM6; assay type: cell-based; conditions: 24 hours, GZD824 vs KX2-391 vs HO-3867 vs DMSO
Experimental: 1.2 After treating NALM6 and SUPB15 cells respectively with GZD824 (3 μM, 1 μM) and DMSO of different concentrations for 24 hours, apoptosis was detected using an apoptosis kit (ANNEXIN V, PI). Please refer to FIG. 2 for the results. After treating the two types of cells NALM6 and SUPB15 respectively with GZD824 of different concentrations (3 μM/L, 1 μM/L) for 24 hours, the cells were stained with the apoptosis kit (ANNEXIN V, PI), and apoptosis was detected with flow cytometry.
5.3 After treating NALM6 cells with GZD824, SRC suppressor (KX2-391), STAT3 suppressor (HO-3867) or DMSO for 24 hours, apoptosis was detected by using the apoptosis kit (ANNEXIN V, PI). The ratio of ANNEXIN V positive cells was analyzed by statistical methods. […] For the experimental results, please refer to FIG. 15.

## IGF-1: cytokine IGF-1, added at 10 ng/mL
[1]
  effect of added IGF-1 on GZD824-induced apoptosis: partly reverse the effect of GZD824 on apoptosis

## O=C(Cc1ccc(-c2ccc(OCCN3CCOCC3)cc2)cn1)NCc1ccccc1 [KX2-391, reference compound]
NALM6 cells
  ratio of apoptosis (ANNEXIN V positive cells), comparison of inhibitors: almost the same

## CC1(C)C=C(CN2C/C(=C\c3ccc(F)cc3)C(=O)/C(=C/c3ccc(F)cc3)C2)C(C)(C)N1O [HO-3867, reference compound]
NALM6 cells
  ratio of apoptosis (ANNEXIN V positive cells), comparison of inhibitors: almost the same
